Read-outs that look alike come from different tables or passages of the source.
Columns and labels:
[1] = tested on: undifferentiated mouse skeletal muscle-derived myoblast line, C2C12 cells; details: vs 1×PBS control
Protocol: (§1) C2C12 cells were subcultured at 37° C. in the presence of 5% CO2, using Dulbecco's Modified Eagle Medium (DMEM) (Nissui, Tokyo, Japan) containing 10% inactivated FBS, penicillin (100,000 U/L; Meiji, Tokyo, Japan), streptomycin (100 mg/L: Meiji), NaHCO3 (2.0 g/L: Wako, Osaka, Japan), and L-glutamine (Wako).
The number of mitochondria in C2C12 cells was measured as follows.
(§2) C2C12 cells were seeded in 6-well plates at 4.0×10^5 cells/well, and after 24 hours, β-alanine was added thereto at a concentration of 500 μM or 1 mM. In addition, 1×PBS was added to as a control well. After 2 hours from the above addition, the medium was removed by suction, and 2 mL/well of Mito Tracker Green FM (Invitrogen) which is diluted to 200 nM in DMEM medium containing 10% FBS, was added. Then, the whole was incubated for 30 minutes at 37° C. in the presence of 5% CO2 under shading. Then, the diluted solution was removed by suction, and 1×PBS was added at 1 mL/well to wash the cells. 1×PBS was removed by suction and trypsin was added at 500 μL/well. Then, trypsin was removed by suction and incubated at 37° C. in the presence of 5% CO2 for 5 minutes under shading. After incubation, the cells were suspended to 1 mL of DMEM medium containing 10% FBS to be collected in a 1.5 mL tube. After passing this cell suspension through a nylon mesh (Kyoshin Riko, Tokyo, Japan), the cells were measured by a flow cytometer (EPICS XL System II-JK, Beckman Coulter, CA, USA; Cell Analyzer EC800 CSC, Sony, Tokyo, Japan). The analysis was performed at the FCM analysis software FlowJo (TOMY Digital Biology, Tokyo, Japan).
(§3) In addition, cells were seeded, and β-alanine was added thereto at a concentration of 100 μM or 1 mM. After 24 hours, β-alanine was secondary added, and the medium was aspirated after 24 hours of the second addition. Using the above cells treated with β-alanine for 48 hours as cells to which the diluted solution of Mito Tracker Green FM (Invitrogen) was added, the same procedure as the cells treated with β-alanine for 2 hours was repeated.
Mito Tracker Green FM (Invitrogen) is a fluorescent reagent that stains mitochondria independently of the membrane potential.
(§4) The procedure described in Example 1 was repeated, except that glycine was used instead of β-alanine.

Pgc-1α gene = details: differentiated C2C12 cells, 48 hours, relative to β-actin, ΔΔCt method
[2] = tested on: C2C12 cells differentiated into myotube cells
Protocol: as §2
(§5) In addition, cells were seeded, and β-alanine was added thereto at a concentration of 100 μM or 1 mM. […]

[3] = tested on: C2C12 cells differentiated into myotube cells; remark: listed apart in the source
Protocol: as §2, with “The number of activated mitochondria in C2C12 cells was measured as follows. C2C12” for “C2C12”, “Red CMXRos (Invitrogen)” for “Green FM”, “250” for “200”, “tube.” for “tube. After passing this cell suspension through a nylon mesh (Kyoshin Riko, Tokyo, Japan), the cells were measured by a flow cytometer (EPICS XL System II-JK, Beckman Coulter, CA, USA; Cell Analyzer EC800 CSC, Sony, Tokyo, Japan). The analysis was performed at the FCM analysis software FlowJo (TOMY Digital Biology, Tokyo, Japan).”
(§6) After passing this cell suspension through a nylon mesh (Kyoshin Riko), the cells were measured by a flow cytometer (EPICS XL System II-JK, Beckman Coulter, CA, USA; Cell Analyzer EC800 CSC, Sony). The analysis was performed at the FCM analysis software FlowJo (TOMY Digital Biology, Tokyo, Japan).
as §5

[4] = tested on: undifferentiated mouse skeletal muscle-derived myoblast line, C2C12 cells; details: for mitochondrial activation (Mito Tracker Red CMXRos): vs 1×PBS control
Protocol: as §1
as §2, with “The number of activated mitochondria in C2C12 cells was measured as follows. C2C12” for “C2C12”, “Red CMXRos (Invitrogen)” for “Green FM”, “250” for “200”, “tube.” for “tube. After passing this cell suspension through a nylon mesh (Kyoshin Riko, Tokyo, Japan), the cells were measured by a flow cytometer (EPICS XL System II-JK, Beckman Coulter, CA, USA; Cell Analyzer EC800 CSC, Sony, Tokyo, Japan). The analysis was performed at the FCM analysis software FlowJo (TOMY Digital Biology, Tokyo, Japan).”
as §6
as §3, with “Red CMXRos” for “Green FM”
On the other hand, Mito Tracker Red CMXRos (Invitrogen) is a fluorescent reagent that stains mitochondria in a membrane potential-dependent manner. Therefore,
when a peak of the flow cytometer histogram shifts to the right by the addition of β-alanine, it indicates mitochondrial activity was enhanced.
as §4
The cells were prepared by repeating the procedure of Mito Tracker Red CMX Ros in Example 1 except that the treatment with β-alanine was set to 72 hours.

Acaa2 gene = details: differentiated C2C12 cells; 500 μM
Protocol: (§7) In this example, the transcription of the genes for Acaa1b and Acaa2 in β-alanine-treated mouse skeletal muscle-derived myoblast line, C2C12 cells was measured.
(§8) The procedure described in Example 4 was repeated except that the Acaa1b forward primer and the Acaa1b reverse primer, or the Acaa2 forward primer and the Acaa2 reverse primer were used instead of the Pgc-1α forward primer and the Pgc-1α reverse primer.

Acaa1b gene = details: differentiated C2C12 cells; 500 μM
Protocol: as §7, §8

[5] = tested on: undifferentiated mouse skeletal muscle-derived myoblast line, C2C12 cells; details: 48 hours
Protocol: In this example, mitochondrial activation was examined by using a confocal laser scanning microscope.
The cells treated with β-alanine for 48 hours were prepared by the same procedure as in Example 1. C2C12 cells were seeded at a concentration of 3.0×10^4 cells/mL or 5.0×10^4 cell s/mL, and Mito Tracker Green FM (Invitrogen) and Mito Tracker Red CMXRos (Invitrogen) were added simultaneously. The resulting cells were observed under a confocal laser scanning microscope (Olympus).

[6] = treatment time 2 hours, 500 μM or 1 mM
[7] = treatment time 48 hours, 100 μM or 1 mM

Row | SMILES | number of mitochondria (Mito Tracker Green FM) [1, 6] | number of mitochondria (Mito Tracker Green FM) [1, 7] | expression of Pgc-1α (Pgc-1α gene; 500 μM) | number of mitochondria (Mito Tracker Green FM) ([2]; treatment time 2 hours) | number of mitochondria (Mito Tracker Green FM) ([2]; treatment time 48 hours) | mitochondrial activation (Mito Tracker Red CMXRos) ([3]; treatment time 2 hours) | mitochondrial activation (Mito Tracker Red CMXRos) ([3]; treatment time 48 hours) | mitochondrial activation (Mito Tracker Red CMXRos) [4, 6] | mitochondrial activation (Mito Tracker Red CMXRos) [4, 7] | expression of Acaa2 (Acaa2 gene) | expression of Acaa1b (Acaa1b gene) | expression of Pgc-1α (Pgc-1α gene; 1 mM) | red fluorescence of Mito Tracker Red CMX Ros (confocal microscope) ([5]; 500 μM) | red fluorescence of Mito Tracker Red CMX Ros (confocal microscope) ([5]; 1 mM) | fluorescence of Mito Tracker Red (flow cytometry) ([4]; treatment 72 hours)
1 | NCC(=O)O [glycine] | increased in a concentration-dependent manner | increased in a concentration-dependent manner | enhanced the expression | increased in a concentration-dependent manner | increased in a concentration-dependent manner | mitochondrial activation was confirmed | mitochondrial activation was confirmed | mitochondrial activation was confirmed | mitochondrial activation was confirmed |  |  |  |  |  | 
2 | NCCC(=O)O [β-alanine, 3-aminopropanoic acid] | increased in a concentration-dependent manner | increased in a concentration-dependent manner | enhanced the expression |  |  |  |  | mitochondrial activation was confirmed | mitochondrial activation was confirmed | enhanced the expression | enhanced the expression | enhanced the expression | strengthened the red fluorescence | further strengthened the red fluorescence | increased the fluorescence

From patent publication US20220313639A1, “MITOCHONDRIAL FUNCTION ACTIVATOR” (Yuki Gosei Kogyo Co., Ltd., priority 2019, published 2022)
